In patent EP0429372A1, “2-Azolyl nicotinate derivatives as herbicides” (RHONE-POULENC AGROCHIMIE, priority 1989, dated 1991):

Columns and labels:
Type in all cases: in vivo
Sinapis alba = assay: Example B: post-emergence herbicidal application, pot test; settings: 1000 g/ha, 576 h
Echinochloa crusgalli = assay: as above; settings: 1000 g/ha, 576 h
How it was run: (§1)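 Post-emergence spray at 500 L/ha on seedlings in light soil (grasses at second-leaf stage, dicots at cotyledon/first true leaf), rates of 4000 g/ha. Held 24 days at room temperature, 70% RH, subirrigated. Plant kill and height reduction versus untreated combined into surviving foliar volume, scored 0–5.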

Solanum nigrum [1] = assay: as above; settings: 1000 g/ha, 576 h
How it was run: as §1

Ipomea purpurea = assay: as above; settings: 1000 g/ha, 576 h
How it was run: as §1

Digitaria sanguinalis = assay: as above; settings: 1000 g/ha, 576 h
How it was run: as §1

Convolvulus arvensis = settings: post-emergence, 1000 g/ha, 576 h
From the text: (§2) Dans des pots de 7 x 7 x 8 cm remplis de terre agricole légère, on sème un nombre de graines déterminé en fonction de l'espèce végétale et de la grosseur de la graine.
(§3) On recouvre ensuite les graines d'une couche de terre d'environ 3 mm d'épaisseur et on laisse germer la graine jusqu'à ce qu'elle donne naissance à une plantule au stade convenable. Le stade de traitement pour les graminées est le stade "deuxième feuille en formation". Le stade de traitement pour les dicotylédones, est le stade "cotylédons étalés, première feuille vraie en développement".
(§4) Les pots sont alors traités par pulvérisation de bouillie en quantité correspondant à une dose volumique d'application de 500 l/ha et contenant la matière active à la concentration désirée.
(§5) La bouillie a été préparée de la même manière qu'à l'exemple A.
(§6) Les pots traités sont ensuite placés dans des bacs destinés à recevoir l'eau d'arrosage, en subirrigation, et maintenus pendant 24 jours à température ambiante sous 70 % d'humidité relative.
(§7) Au bout de 24 jours, on mesure un pourcentage (D) de destruction du nombre de pieds dans le pot traité par rapport au nombre de plantes dans les pots non traités (témoin). On mesure, sur les plantes traitées restantes, le pourcentage de réduction de taille (RT) par rapport aux plantes témoin.
(§8) Le pourcentage de volume foliaire non détruit par le produit est donc donné par la formule : [formula]
(§9) Cette valeur A est transformée en notation de 0 à 5 selon l'échelle suivante :
(§10) Ainsi, un produit est jugé comme sélectif vis à vis de la culture lorsque la valeur A notée est de 0 ou 1.
(§11) Les résultats obtenus sont présentés dans l'exemple C pour des doses d'application comprises entre 0,5 et 4 kg de matière active par hectare selon les produits.

Chrysanthemum segetum = settings: post-emergence, 1000 g/ha, 576 h
From the text: as §2, §3, §4, §5, §6, §7, §8, §9, §10, §11

Polygonum convolvulus = settings: 1000 g/ha, 576 h
From the text: as §2, §3, §4, §5, §6, §7, §8, §9, §10, §11

Sesbania exaltata = assay: Example C: selectivity test in major crops, post-emergence application; settings: 1000 g/ha, 576 h
How it was run: (§12)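 A 0–5 rating, with 0 or 1 counted as selective, was obtained from plant kill and size reduction relative to controls 24 days post-treatment.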

Viola tricolor = assay: as above; settings: 1000 g/ha, 576 h
How it was run: as §12

Solanum nigrum [2] = assay: as above; settings: 1000 g/ha, 576 h
How it was run: as §12

Zea mays = assay: as above; settings: crop (Maïs), dose 1 kg/ha, 24 days, score 0-5, 0 or 1 = selective; further: ranges in brackets are in %
How it was run: as §12

Ipomea pupurea = assay: as above; settings: 1000 g/ha, 576 h
How it was run: as §12

Oryza sativa = assay: as above; settings: crop (Riz), dose 1 kg/ha, 24 days, score 0-5, 0 or 1 = selective; further: ranges in brackets are in %
How it was run: as §12

Xanthium pennsylvanicum = assay: as above; settings: 1000 g/ha, 576 h
How it was run: as §12

Triticum aestivum = assay: as above; settings: crop (Blé), dose 1 kg/ha, 24 days, score 0-5, 0 or 1 = selective; further: ranges in brackets are in %
How it was run: as §12

SMILES: CN(C)S(=O)(=O)n1c(-c2ncccc2C(=O)O)nc2ccccc21 [compound 122]
- ACTIVITE DE POST-LEVEE SIN (Sinapis alba): 5 (O à 10)
- ACTIVITE DE POST-LEVEE ECH (Echinochloa crusgalli): 2 (50 à 70)
- ACTIVITE DE POST-LEVEE SOL (Solanum nigrum [1]): 5 (O à 10)
- ACTIVITE DE POST-LEVEE IPO (Ipomea purpurea): 4 (10 à 30)
- ACTIVITE DE POST-LEVEE DIG (Digitaria sanguinalis): 1 (70 à 90)
- ACTIVITE HERBICIDE DE POST LEVEE C O N (Convolvulus arvensis): 5 (O à 10)
- ACTIVITE HERBICIDE DE POST LEVEE C H Y (Chrysanthemum segetum): 5 (O à 10)
- ACTIVITE HERBICIDE DE POST LEVEE P O L (Polygonum convolvulus): 5 (O à 10)
- ACTIVITE HERBICIDE DE POST LEVEE S E S (Sesbania exaltata): 5 (O à 10)
- ACTIVITE HERBICIDE DE POST LEVEE V I O (Viola tricolor): 3 (30 à 50)
- ACTIVITE HERBICIDE DE POST LEVEE S O L (Solanum nigrum [2]): 5 (O à 10)
- ACTIVITE HERBICIDE DE POST LEVEE Z E A (Zea mays): 0 (90 à 100)
- ACTIVITE HERBICIDE DE POST LEVEE I P O (Ipomea pupurea): 5 (O à 10)
- ACTIVITE HERBICIDE DE POST LEVEE O R Y (Oryza sativa): 0 (90 à 100)
- ACTIVITE HERBICIDE DE POST LEVEE X A N (Xanthium pennsylvanicum): 5 (O à 10)
- ACTIVITE HERBICIDE DE POST LEVEE T R Z (Triticum aestivum): 0 (90 à 100)
